Data: article PMC5855801, “Benzothiophenone Derivatives Targeting Mutant Forms of Estrogen Receptor-α in Hormone-Resistant Breast Cancers” (International Journal of Molecular Sciences, 2018)

Columns and labels:
ERα LBD = biological target: T1, ERα LBD (Homo sapiens, UniProt P03372); assay: Biolayer interferometry (BLI) direct binding assay; details: biotinylated ERα LBD on streptavidin sensor, 3–100 μM
T1 construct: ERα LBD (amino acids 302–552) was cloned into the pAN4 AviTag™ Vector; made in house
T1 sequence (P03372 302-552): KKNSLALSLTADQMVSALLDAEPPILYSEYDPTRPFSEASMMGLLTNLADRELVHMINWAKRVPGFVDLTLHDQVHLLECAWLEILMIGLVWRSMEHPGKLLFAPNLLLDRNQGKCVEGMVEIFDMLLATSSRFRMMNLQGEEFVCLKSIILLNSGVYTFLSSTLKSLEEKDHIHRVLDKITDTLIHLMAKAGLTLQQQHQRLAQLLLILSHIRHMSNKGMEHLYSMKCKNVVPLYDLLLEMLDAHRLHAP
Experimental: The direct binding of small molecules to the ERα-LBD was quantified by BLI using an Octet RED apparatus (Pall ForteBio, Menlo Park, CA, USA). ERα LBD (amino acids 302–552) was cloned into the pAN4 AviTag™ Vector, (Avidity, Aurora, CO, USA). Biotinylated ERα-LBD was purified as described previously. Biotinylated protein (bERα LBD at 0.05 mg/mL) was bound to the super streptavidin sensors (Pall ForteBio) overnight at 4 °C in assay buffer (20 mM Tris, pH 7.5, 500 mM NaCl, 0.2 mM tris(2-carboxyethyl)phosphine TCEP, 0.02 mM E2, 5% glycerol and 5% dimethyl sulfoxide (DMSO). The compounds were dissolved in the assay buffer in a two-fold dilution series ranging from 3.1–100 μM. In all experiments, a known AF2-interacting peptide, PGC-1α (Elim Biopharmaceuticals, Hayward, CA, USA) was used as a control to confirm the functionality of the bERα LBD.

[1] = biological target: T2, full-length ERα (estrogen binding site) (Homo sapiens, UniProt P03372); assay: E2 displacement fluorescence polarization assay (PolarScreen ERα Competitor Green); details: highest concentration 6 µM, compared to positive control E2
T2 construct: in the presence of 25 nM full-length ERα and 4.5 nM flourescein-E2; purchased Life Technologies P2698
T2 sequence (P03372 1-595): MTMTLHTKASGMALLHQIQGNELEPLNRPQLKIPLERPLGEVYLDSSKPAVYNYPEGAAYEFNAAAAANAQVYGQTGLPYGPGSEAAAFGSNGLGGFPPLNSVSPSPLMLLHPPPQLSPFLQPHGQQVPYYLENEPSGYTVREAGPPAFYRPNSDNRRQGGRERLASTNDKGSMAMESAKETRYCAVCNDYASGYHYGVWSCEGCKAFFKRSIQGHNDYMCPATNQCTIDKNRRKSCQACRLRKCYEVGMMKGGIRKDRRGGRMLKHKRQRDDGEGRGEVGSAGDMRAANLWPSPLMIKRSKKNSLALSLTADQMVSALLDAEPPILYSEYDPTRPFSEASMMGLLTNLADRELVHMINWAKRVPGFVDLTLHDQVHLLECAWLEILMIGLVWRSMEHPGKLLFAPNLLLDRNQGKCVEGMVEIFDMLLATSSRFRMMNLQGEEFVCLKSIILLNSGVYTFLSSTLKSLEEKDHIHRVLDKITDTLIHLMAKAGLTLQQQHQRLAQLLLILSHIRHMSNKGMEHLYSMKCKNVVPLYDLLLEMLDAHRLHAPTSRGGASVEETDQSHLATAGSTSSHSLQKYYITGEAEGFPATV
Experimental: It should be noted that selective estrogen receptor modulators (SERMs) such as tamoxifen displace co-activator protein from AF2 allosterically, i.e., by binding to the estrogen binding site (EBS). To ascertain whether VPC-16606 is not an EBS binder, 17 β-estradiol (E2) displacement was assessed with the Polar Screen Estrogen Receptor-α Competitor Green Assay Kit (P2698, Life Technologies, Carlsbad, CA, USA).
E2 displacement was assessed with the PolarScreen ERα Competitor Assay Green kit (P2698; LifeTechnologies) as per the instructions of the manufacturer. Briefly, 50 µL of assay buffer containing VPC-16606 were added to a 50-μL mixture containing 2× full-length ERα and flourescein-E2 in each well of a […] black plate to obtain final concentrations of 0.2–6.3 μM of the test compound in the presence of 25 nM full-length ERα and 4.5 nM flourescein-E2. After 2 h, polarisation was measured on a Tecan F500 microplate reader.

MCF7 cells = assay: Presto Blue cell viability assay, MCF7; format: cell-based, human; details: MCF7, 96 h, two-fold dilution starting at 50 µM
Experimental: (§1) The Presto Blue cell viability assay was used to assess the growth inhibitory potential of VPC-16606 on ERα^+ T47D, MCF7, ZR75-1 and TamR3 cells. They were treated for 96 h with a two-fold dilution range of the compound starting at 50 µM.
(§2) Cell viability was determined using the Presto Blue cell viability assay (Thermo Fisher Scientific, Waltham, MA, USA). Cells were seeded in clear bottom black-walled 96-well plates at a density of 5 × 10^3 cells/well in 100 μL of their respective media. On the following day, the cells were treated with test compounds (0.001–22.5 μM) in the presence of 1 nM E2 and incubated at 37 °C. After 96 h, 30 μL of Presto Blue reagent was added and incubated for 10 min at 37 °C. The fluorescent signal from viable cells was measured at 590 nm.

ZR75-1 cells = assay: Presto Blue cell viability assay, ZR75-1; format: cell-based, human; details: ZR75-1, 96 h, two-fold dilution starting at 50 µM
Experimental: as §1, §2

ERα− MDA-MB-231 cells = assay: Presto Blue cell viability assay, MDA-MB-231; format: cell-based, human; details: ERα− MDA-MB-231, 96 h
PC3 cells = assay: Presto Blue cell viability assay, PC3; format: cell-based, human; details: PC3, 50 µM, 96 h
Experimental: as §2
Supplementary Materials: Benzothiophenone Derivatives Targeting Mutant Forms of Estrogen Receptor-α in Hormone-Resistant Breast Cancers
Figure S1. Effect of VPC-16606 on viability of PC3 cells as measured in the Presto Blue assay. […]
Figure S2. TR-FRET Assay showing displacement of Fluorescein labelled PGC1 α peptide by VPC-16606 upon incubation with ER β-LBD. OHT was used at 1µM. Error bars represent standard deviation for two independent experiments performed in triplicates. […]

[2] = test system: ERα-dependent genes pS2, PR, Cyclin D1 and CDC2; assay: qRT-PCR of ERα-dependent genes in MCF7 cells; format: cell-based, human; details: MCF7, 24 h, 1 nM E2
Experimental: mRNA levels were analyzed after treatment of MCF7 and TamR3 cells for 24 h with the test compounds as described previously. The fold change in expression of the genes was calculated using the 2^−ΔΔCt method with GAPDH as the internal control.

Compound: CC(=O)N(/N=C1\Sc2c(C)cccc2C1=O)c1ccccc1Cl [VPC-16606]
- Direct binding to ERα LBD (BLI) (ERα LBD): direct reversible interaction
- Displacement of fluorescein labelled E2 (FL-E2) from the EBS [1]: minimal displacement
- Cell growth (Presto Blue viability) (MCF7 cells): significantly reduce the growth
- Cell growth (Presto Blue viability) (ZR75-1 cells): significantly reduce the growth
- Cell growth (Presto Blue viability) (ERα− MDA-MB-231 cells): without any effect
- Cell viability of PC3 cells (PC3 cells): affects cell viability
- mRNA levels of ERα-dependent genes pS2, PR, Cyclin D1 and CDC2 [2]: significantly downregulates
